Test results from article PMC3545969, “Mutagenicity and antimutagenicity of (−)-hinokinin a trypanosomicidal compound measured by Salmonella microsome and comet assays” (BMC Complementary and Alternative Medicine, 2012).
Where two headings read alike, the source gives them in different places. Marks after values point to notes of the source that are not given here.

What was measured:
[1] = test system: Salmonella typhimurium TA102; experiment: Ames test, antimutagenicity assay, TA102; type: cell-based
rat peripheral blood = test system: rat peripheral blood; design: method as in PMID 17141387; conditions: cited from earlier work
V79 cells = experiment: Comet assay, genotoxicity in V79 cells; type: cell-based, Chinese hamster; design: Class 0 / Class 1 / Class 2 / Class 3: unit not given here; conditions: 3 h
Description: Chinese hamster lung fibroblasts (V79) were kindly supplied by Professor Cólus (Universidade Estadual de Londrina (UEL), Paraná, Brazil). Cells were maintained as monolayers in plastic culture flasks (25 cm^2) in HAM-F10 (Sigma-Aldrich) plus DMEM (Sigma-Aldrich, 1:1) culture medium supplemented with 10%; fetal bovine serum (Nutricell), antibiotics (0.01 mg mL^−1 streptomycin and 0.005 mg mL^−1 penicillin; Sigma-Aldrich) and 2.38 mg mL^−1 Hepes (Sigma-Aldrich), at 37°C in a BOD-type chamber. Under these conditions, the average cell cycle time was 12 h.
HK was first dissolved in a mixture of methanol (100 μL) and distilled water (900 μL). The final concentration of methanol in the culture was 0.1%;. The choice of concentrations was based on the results of previous experiments with HK [12]. In the experiments, 3 × 10^5 cells (V79) were seeded into tissue-culture flasks, incubated for two cycles (24 h) in complete HAM-F10/DMEM medium, washed with phosphate buffer saline (PBS), and then subjected to one of the following treatments, in serum-free medium, for 3 h. To assess genotoxicity, the cells were treated with each concentration of HK alone, while for antigenotoxicity, they were treated with the mutagen DXR (0.3 μM) in combination with each HK concentration. Positive (DXR) and negative controls were also included in the test. At the end of the treatment, the cells were washed with ice-cold PBS and trypsinized with 200 μL trypsin. After 3 min, the cells were gently resuspended in complete medium and 20 μL of the cell suspension was immediately used for the test.
The procedures described by Singh et al. were adopted, with minor modifications, as described in detail by Speit and Hartmann and reviewed by Burlinson et al.. Briefly, a microscope slide was covered with a base layer of 1.5%; normal-melting agarose (Invitrogen) and 20 μL of the test cells suspended in 120 μL 0.5%; low-melting agarose (Invitrogen) at 37°C was then spread over the base layer. A coverslip was added and the agarose allowed to solidify at 4°C for 15 min. Next, the coverslip was gently removed and the slides were immersed in freshly prepared lysing solution consisting of 89 mL stock solution (2.5 M NaCl, 100 mM EDTA, 10 mM Tris, pH 10.0, and 1%; sodium lauryl sarcosine), 10 mL DMSO and 1 mL Triton X-100, pH 10.0, at 4°C, for at least 20 h, protected from light. At the end of this period, the slides were transferred to an electrophoresis chamber containing a high pH (>13.0) buffer (300 mM NaOH, 1 mM EDTA) and incubated at 4°C for 20 min to allow the DNA to unwind. A current of 25 V (1.0 V cm^−1, 300 mA) was applied for 20 min. The slides were then submerged in a neutralization buffer (0.4 M Tris - HCl, pH 7.5) for 15 min, dried at room temperature and fixed in 100%; ethanol for 10 min.
The slides were stained with 100 μL ethidium bromide (20 μg ml^−1) and covered with a coverslip. All the slides in the experiment were coded before analysis. The stained nucleoids were immediately evaluated at 1000x magnification under a Nikon fluorescence microscope fitted with a 515–560 nm excitation filter and a 590 nm barrier filter.
For each treatment, the extent and distribution of DNA damage indicated by the comet assay were evaluated by examining 100 randomly selected and non-overlapping cells on the slides (i.e. 300 nucleoids per treatment). For each slide, the cells were visually scored and allocated to one of four classes (0, 1, 2 and 3), according to tail size, as follows: class 0, undamaged, no tail; class 1, a short tail whose length was smaller than the diameter of the comet head (nucleus); class 2, tail length between 1 and 2 times the diameter of the head; and class 3, maximally damaged: a long tail measuring more than twice the diameter of the head. The few comets containing no head and those with almost all DNA in the tail, or with a very wide tail, were excluded from the analysis since they may arise from dead cells. […]

[2] = test system: Salmonella typhimurium TA97a; conditions: for % inhibition / Number of revertants(M ± SD)/ plate: TA 97a
[3] = test system: S. typhimurium strains TA98, TA100, TA102 and TA97a; conditions: HK 9.7 - 78.0 μg/plate, +S9 and −S9
[4] = TA 102, + S9, HK 19.5 μg/plate + 2-AF 10.0 μg/plate
[5] = TA 102, + S9, HK 39.0 μg/plate + 2-AF 10.0 μg/plate
[6] = TA 102, + S9, HK 58.5 μg/plate + 2-AF 10.0 μg/plate
[7] = TA 102, + S9, HK 78.0 μg/plate + 2-AF 10.0 μg/plate
[8] = TA 102, - S9, HK 58.5 μg/plate + MMC 0.5 μg/plate
[9] = TA 102, - S9, HK 78.0 μg/plate + MMC 0.5 μg/plate
[10] = + S9, HK 19.5 μg/plate + 2-AA 1.25 μg/plate
[11] = + S9, HK 39.0 μg/plate + 2-AA 1.25 μg/plate
[12] = + S9, HK 58.5 μg/plate + 2-AA 1.25 μg/plate
[13] = + S9, HK 78.0 μg/plate + 2-AA 1.25 μg/plate
[14] = + S9, HK […] + 2-AA 1.25 μg/plate

## O=C1OC[C@H](Cc2ccc3c(c2)OCO3)[C@H]1Cc1ccc2c(c1)OCO2 [HK, (−)-hinokinin]
[1]
  Number of revertants(M ± SD)/ plate: 852 + 21 revertants/plate
[1]; [4]
  % inhibition: 42*** %
  Number of revertants(M ± SD)/ plate: 855 + 22 revertants/plate
[1]; [5]
  % inhibition: 46*** %
  Number of revertants(M ± SD)/ plate: 820 + 19 revertants/plate
[1]; [6]
  % inhibition: 52*** %
  Number of revertants(M ± SD)/ plate: 754 + 9 revertants/plate
[1]; [7]
  % inhibition: 52*** %
  Number of revertants(M ± SD)/ plate: 757 + 29 revertants/plate
[1]; TA 102, + S9, HK […] + 2-AF 10.0 μg/plate
  % inhibition: 42*** %
[1]; TA102, +S9, dose not given
  decrease in the mutagenicity of 2-AF: 52%
[1]; TA 102, - S9, HK 19.5 μg/plate + MMC 0.5 μg/plate
  Number of revertants(M ± SD)/ plate: 1201 + 23 revertants/plate
[1]; TA 102, - S9, HK 39.0 μg/plate + MMC 0.5 μg/plate
  Number of revertants(M ± SD)/ plate: 1317 + 14 revertants/plate
[1]; [8]
  % inhibition: 18* %
  Number of revertants(M ± SD)/ plate: 1017 + 56 revertants/plate
[1]; [9]
  % inhibition: 22* %
  Number of revertants(M ± SD)/ plate: 979 + 51 revertants/plate
[1]; TA 102, - S9, HK […] + MMC 0.5 μg/plate
  Number of revertants(M ± SD)/ plate: 1236 + 17 revertants/plate
[1]; TA102, absence of metabolic activation
  effect on mutagenesis induced by MMC: did not reduce mutagenesis
Rat peripheral blood
  effect on chromosome damage induced by DXR, micronucleus test: effective in reducing the chromosome damage induced by DXR
  genotoxic effect, micronucleus test: no genotoxic effect
V79 cells; HK 0.5 μM alone
  Class 0: 81.6 ± 4.9
  Class 1: 12.3± 3.5
  Class 2: 4.3 ± 3.7
  Score: 26.0 ± 13.2
V79 cells; HK 1.0 μM alone
  Class 0: 87.0 ± 5.1
  Class 1: 11.0 ± 5.2
  Class 2: 1.3 ± 0.5
  Class 3: 0
  Score: 13.0 ± 5.0
V79 cells; HK 2.0 μM alone
  Class 0: 83.0 ± 3.7
  Class 1: 14.0 ± 2.5
  Class 2: 2.0 ± 2.0
  Class 3: 0
  Score: 18.0 ± 5.0
V79 cells; HK 32 μM alone
  Class 0: 89.0 ± 2.0
  Class 1: 10.0 ± 2.0
  Class 2: 0.3 ± 0.5
  Class 3: 0.6 ± 1.1
  Score: 9.6 ± 2.3
V79 cells; HK 64 μM alone
  Class 0: 88.0 ± 3.6
  Class 1: 11.0 ± 4.0
  Class 2: 0.6 ± 1.0
  Class 3: 1.0 ± 1.0
  Score: 13.0 ± 3.4
[2]; [10]
  % inhibition: 45*** %
  Number of revertants(M ± SD)/ plate: 659 + 41 revertants/plate
[2]; [11]
  % inhibition: 49*** %
  Number of revertants(M ± SD)/ plate: 628 + 16 revertants/plate
[2]; [12]
  % inhibition: 67*** %
  Number of revertants(M ± SD)/ plate: 456 + 13 revertants/plate
[2]; [13]
  % inhibition: 60*** %
  Number of revertants(M ± SD)/ plate: 523 + 86 revertants/plate
[2]; [14]
  % inhibition: 43*** %
  Number of revertants(M ± SD)/ plate: 682 + 52 revertants/plate
[2]; - S9, HK 19.5 μg/plate + NOPD 10.0 μg/plate
  Number of revertants(M ± SD)/ plate: 948 + 24 revertants/plate
[2]; - S9, HK 39.0 μg/plate + NOPD 10.0 μg/plate
  Number of revertants(M ± SD)/ plate: 979 + 84 revertants/plate
[2]; - S9, HK 58.5 μg/plate + NOPD 10.0 μg/plate
  Number of revertants(M ± SD)/ plate: 1006 + 54 revertants/plate
[2]; - S9, HK 78.0 μg/plate + NOPD 10.0 μg/plate
  Number of revertants(M ± SD)/ plate: 1026 + 75 revertants/plate
[2]; - S9, HK […] + NOPD 10.0 μg/plate
  Number of revertants(M ± SD)/ plate: 934 + 33 revertants/plate
[2]; TA97a, absence of metabolic activation
  effect on mutagenesis induced by NOPD: did not reduce mutagenesis
[2]; strain 97a, −S9, HK + NOPD
  potentiation of NOPD-induced effect (revertants vs positive control alone): potentiated NOPD -induced clastogenicity
[3]
  mutagenic activity (number of revertant colonies relative to the negative control): did not induce any increase in the number of revertant colonies
